The record followed here is patent publication US20240382564A1, “Methods and Compositions for Treating Muscular Dystrophy and Memory Impairment” (Allysta Pharmaceuticals, Inc., priority 2023, published 2024).

Where no end group is shown, it is not given here. [ ]: non-standard residue; d: D form. Nva = CCC[C@H](N)C(=O)O

In experiment [1] the test system is D2.mdx mice. Nature of the experiment: Hippocampal cytokine mRNA by quantitative PCR. The following applies: 15 mg/kg daily. The experiment is classed as in vivo, mouse. As for the experimental part: Male D2.mdx mice originated from a colony maintained at York University (Toronto, Canada) and sourced from Jackson Laboratories (Stock Number 013141, Bar Harbor, United States). Mice were treated daily from days 7 to 28 of age with ALY688 at 15 mg/kg b.w. (D2.mdx-ALY688) or saline control (D2.mdx-VEH). This age was chosen given it captures an early stage of disease progression in cardiac and skeletal muscle. Mice were sacrificed 20-24 hr after the last dose. Breeding of wildtype mice was unsuccessful. […]
Total RNA was isolated from hippocampus using the Aurum Total RNA Mini Kit (Bio-Rad; Mississauga, ON, Canada) according to manufacturer's instructions, and reverse transcribed into cDNA by M-MLV reverse transcriptase and oligo (dT) primers (Qiagen). cDNA was then amplified in a CFX384 Touch Real-Time PCR Detection Systems (Bio-Rad) with a SYBR Green master mix and specific primers. Gene expression was normalized to a Rplp0 control and relative differences were determined using the ΔΔCt method (Livak, K. J., & Schmittgen, T. D. (2001). Analysis of relative gene expression data using real-time quantitative PCR and the 2(-Delta Delta C(T)) Method. Methods, 25 (4), 402-408. doi: 10.1006/meth.2001.1262), normalized to D2A expression. […]

Experiment [2] concerns D2.mdx mice. The experiment is described as follows: Muscle cytokine protein profiling (LEGENDplex). In kind it is in vivo, mouse. The following applies: HD. The procedure: D2.mdx mice were treated with ALY688 at two different dosages; high dose (HD; 15 mg/kg body weight/day) or low dose (LD; 3 mg/kg body weight/day) dissolved in saline. A separate group of mice were treated with saline alone (VEH, vehicle). Treatment was provided via subscapular subcutaneous injections from 7 days of age to 28-30 days. […] At 28-30 days of age, mice were anaesthetized with isoflurane vaporized in medical air (21% oxygen) at a 2 L/min flow rate. Due to tissue limitations in limb muscle, certain measures were performed separately in tibialis anterior and quadriceps across several phases of breeding. Following the treatment protocol, in situ quadriceps force assessments were then performed in one limb followed by removal of the quadriceps from the other limb for mitochondrial assessments, diaphragm for in vitro force assessments and finally other tissues for further processing as described below. Muscle and visceral organs weights were normalized to tibia length. Tissue collected from the first phase were utilized in force, histological, mitochondrial measures (respiration, mH2O2 and calcium retention capacity) and western analyses (diaphragm and quadriceps only). A second phase was then collected and utilized for cytokine profiling, qPCR analyses and additional westerns (TA only). Serum was collected from both phase 1 and 2 and utilized for serum CK analysis. All animals were utilized in in vivo functional assays (grip strength, cage hang time and voluntary wheel running).
Tibialis anterior and diaphragm samples were homogenized in lysis buffer containing (in mM) (20 Tris/HCl, 150 NaCl, 1 EDTA, 1 EGTA, 1% Triton X-100, 2.5 Na4O7P2, 1 Na3VO4, pH 7.0) supplemented with protease (Roche) and phosphatase inhibitors (Sigma). Samples were diluted two-fold in the assay buffer before loading to the plates with beads. According to the manufacturer's instructions, levels of TGF-β, TNF-α, IL-1β, IL-6 and IL-10 in the homogenates were measured using LEGENDplex™ Mouse Custom Panel. Assay was performed in the Attune NxT flow cytometer (Thermo Fisher). The FCS files generated on the flow cytometer were analyzed using the LEGENDplex™ cloud-based analysis software.

As to [dN]IP[Nva]LY[dS]FA[dS]-NH2 [ALY688], the “hippocampal mRNA of IL-6, TNF-α or IL-10” value in the experiment on D2.mdx mice [1] was “No significant changes”. Moreover, in the experiment with D2.mdx mice [2] (diaphragm), the IL-6 protein content is 69.1 % increase vs VEH, the IL-10 protein content result is reported as “not different between groups”, the TGF-β protein content came to 20.3 % increase vs VEH and the TNF-α protein content entry was “not different between groups”. Also, the “prevention of the increase in TNF-α protein content” value in the experiment with D2.mdx mice [2] (tibialis anterior, VEH 40.6 pg/ml, not detectable in wildtype) is on record as 83.9%.
